The record followed here is patent publication US20160058895A1, “RADIOLABELED GNRH ANTAGONISTS AS PET IMAGING AGENTS” (OSLO UNIVERSITETSSYKEHUS HF, priority 2013, published 2016).

Entries after “also recorded” stand apart in the source; their conditions may differ. A value given as a limit tells only on which side of the number the result lay.

As a reminder, the Ki is the dissociation constant of the complex between target and ligand, obtained from inhibition or displacement. Broadly, the logP is a log measure of how a compound divides between an organic and an aqueous phase. The low end stands for a more hydrophilic compound, the high end for a more lipophilic compound.

The target of one data set is T1, rat GnRH receptor (Rattus norvegicus, UniProt P30969).
T1 construct: expressed in transfected cells; host or cells: HEK 293 cells (transient transfection, membranes prepared 48 h later)
T1 sequence (P30969 1-327): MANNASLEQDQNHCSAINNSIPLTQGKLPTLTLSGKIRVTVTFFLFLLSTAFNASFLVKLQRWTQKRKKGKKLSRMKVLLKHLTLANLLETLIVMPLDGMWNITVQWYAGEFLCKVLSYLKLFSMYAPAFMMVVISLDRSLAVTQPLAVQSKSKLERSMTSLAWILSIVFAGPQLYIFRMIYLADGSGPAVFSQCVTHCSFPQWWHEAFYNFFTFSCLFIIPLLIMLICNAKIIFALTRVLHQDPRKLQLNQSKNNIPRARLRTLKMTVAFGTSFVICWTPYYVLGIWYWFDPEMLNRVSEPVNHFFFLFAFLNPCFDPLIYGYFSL
Nature of the data set: Radioligand binding, membranes of HEK 293 cells expressing rat GnRH receptor, [125I] LH-RH Dtrp6. The protocol: (§1) PSA was calculated using ChemBioDraw Ultra 12.0; Clog D was experimentally determined; Ki was determined by an in vitro assay in HEK 293 cells expressing rat GnRH receptor (see below); the radiochemical yield with respect to isotope decay was corrected based on the start of synthesis, and radiochemical purity was analyzed by Radio-HPLC.
For the membrane preparation and radioligand binding assays, HEK 293 cells were grown in Dulbecco's modified Eagle's medium with 10% fetal bovine serum, penicillin (100 U/ml), and streptomycin (100 μg/ml), and transiently transfected with rat GnRH receptor using LipofectAMINE 2000 (Invitrogen) according to the manufacturer's protocol. 48 hours later, membranes were prepared and radioligand binding was performed as previously described (see, e.g., Krobert et al (2001) “The cloned human 5-HT7 receptor splice variants: a comparative characterization of their pharmacology, function and distribution” Naunyn Schmiedebergs Arch Pharmacol 363(6): 620-32). Radioligand binding studies were performed with 0.18-0.32 nM [^125I] […]
In Table 1, PSA was calculated using ChemBioDraw Ultra 12.0; Clog D was experimentally determined; Ki was determined by an in vitro assay in HEK 293 cells expressing rat GnRH receptor; the radiochemical yield with respect to isotope decay was corrected to the start of synthesis, and radiochemical purity was analyzed by Radio HPLC. […]

Data set [1] in a line: Log D / Log P of pilot compounds, experimentally determined. To be noted: for logP: n-octanol / phosphate-buffered saline, pilot 18F compounds. Type of data set: physicochemical. The protocol: as §1
In Table 1, PSA was calculated using ChemBioDraw Ultra 12.0; Clog D was experimentally determined; Ki was determined by an in vitro assay in HEK 293 cells expressing rat GnRH receptor; the radiochemical yield with respect to isotope decay was corrected to the start of synthesis, and radiochemical purity was analyzed by Radio HPLC.
(§2) During the development of embodiments of the technology provided herein, a competitive binding assay was used to measure the binding affinity to rat GnRH receptor of the two nonradioactive reference ^19F-compounds described above. Radiolabeling was performed from [^18F]fluoride using the corresponding mesylate and chloro-precursors using K[^18F]/K222 complex in DMSO. Log P values and serum stability were investigated and their brain uptake was studied by small animal PET imaging in healthy rats.

Data set [2] can be described thus: Brain uptake by small animal PET imaging in healthy rats. Type of data set: in vivo, rat. The following applies: for Brain uptake (in words): healthy rats.
Excerpt: In particular, PET images (e.g., 90-minute summed PET images) of the brain of a Sprague-Dawley rat injected with an [^18F] compound according to an embodiment of the technology show accumulation of the compound in the central regions of the brain.
as §2

A short description of data set [3]: Stability in rat serum at 37° C., radio-HPLC. Type of data set: in vitro ADME. The following applies: for % Intact 18F-compound, Serum 1 h / % Intact 18F-compound, Serum 2 h: 37° C. Here is the method: as §2
(§3) Serum and in vivo stability measurements were performed as follows. Approximately 5 MBq of ^18F compounds (e.g., peptides or small molecules) in PBS (50 μL) was added to freshly collected rat serum (0.4 mL) and samples were incubated at 37° C. in Eppendorf tubes. After 1 hour and 2 hours, ice-cold ethanol (400 μL) was added and the mixtures were centrifuged at 13,400 rpm for 10 minutes. The resulting supernatants were diluted with Solvent A and analyzed by radio-HPLC.
(§4) Also, the stabilities of the compounds were measured in rat serum and in vivo in rat blood and urine (Table 2). Table 2 provides the fraction (as a percentage of the initial amount) of compound remaining in serum, blood, or urine as a function of time (e.g., after 1 and 2 hours).

The target of data set [4] is T2, human type I GnRH receptor (Homo sapiens, UniProt P30968).
T2 construct: purchased Merck Millipore
T2 sequence (P30968 1-328): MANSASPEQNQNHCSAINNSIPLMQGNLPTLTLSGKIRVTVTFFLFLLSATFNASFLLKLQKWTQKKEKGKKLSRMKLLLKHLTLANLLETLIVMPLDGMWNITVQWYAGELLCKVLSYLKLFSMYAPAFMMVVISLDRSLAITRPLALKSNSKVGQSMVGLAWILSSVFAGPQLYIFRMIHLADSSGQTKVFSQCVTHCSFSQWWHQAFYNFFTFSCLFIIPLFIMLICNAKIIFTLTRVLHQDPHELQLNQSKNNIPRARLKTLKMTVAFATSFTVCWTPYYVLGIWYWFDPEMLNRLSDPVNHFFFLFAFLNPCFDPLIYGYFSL
The experiment in a line: Radioligand binding, cell membranes expressing human type I GnRH receptor, [125I]Triptorelin. The following applies: Ki ± SD, n=3; competition with [125I]Triptorelin; read-out: Receptor affinity Ki for the human GnRH receptor. The protocol:
Radioligand binding studies were performed with 0.18-0.32 nM [^125I]LHRH-[D-Trp^6]
Further, binding curves for of compounds SB-001-RS, SB-002-RS, SB-003-RS, and SB-004-RS for the human GnRH receptor in competition for [^125I]Triptorelin were measured (n=3) (FIG. 3).

Data set [5] is described as follows: In vivo stability in rat blood and urine. The following applies: for % Intact 18F-compound, Blood 1 h: rat blood; for % Intact 18F-compound, Urine 1 h: rat urine. Here is the method: as §3, §4
Data set [6] in a line: Octanol/water partition coefficient, PBS (pH 7.4)/n-octanol. It is filed as physicochemical. To be noted: phosphate-buffered saline (pH 7.4)/n-octanol, n=3. The protocol:
Octanol/water partition coefficients were determined as follows. Approximately 10 kBq of ^18F-compounds in 50 μL PBS were diluted in 450 μL of PBS (pH 7.4) and added to 500 μL of n-octanol in an Eppendorf tube (n=3). After vortexing for 3 minutes, the tubes were centrifuged (10,300 rpm for 6 minutes) and 100 μL aliquots of the PBS and n-octanol phases were carefully transferred to separate tubes. The radioactivity of the samples was counted in a γ-counter.
Log P values were measured in a phosphate-buffered saline (pH 7.4)/n-octanol system.

Regarding `COc1nc([18F])nc(OC)c1NC(=O)c1ccc(Oc2cc3c(cc2C)CCC3(C)C)o1` [[^18F]SB7-65-19], at rat GnRH receptor, the affinity, expressed as Ki, was 42 nM. Further, the “CLog D (pH 7.4)” value in data set [1] (experimentally determined) was found to be 1.33. In data set [1] (pH 7.4), this molecule had a logP of 1.4. Further, in data set [2], the “Brain uptake (in words)” value was “entered the brain and was clearly visibly by PET; also recorded: significant brain uptake”. Further, the “Brain (CNS) uptake” value in data set [2] (rat, at 10 minutes) is recorded as 0.4 % ID/g. In addition, the half-life at 11.1 MBq/mL in data set [3] (rat, serum, hydrolysis of the amide bond, read-out: Serum stability t1/2) was less than 30 min.

Consider `COc1cc(NCCCF)cc(OC)c1NC(=O)c1ccc(Oc2cc3c(cc2C)CCC3(C)C)o1` [SB-002-RS, N-(4-((3-fluoropropyl)amino)-2,6-dimethoxyphenyl)-5-((3,3,6-trimethyl-2,3-dihydro-1H-inden-5-yl)oxy)furan-2-carboxamide], for which the inhibition constant (Ki) in data set [4] came out at 1.5 ± 3.9 nM.

With `COc1cc(OCCF)cc(OC)c1NC(=O)c1ccc(Cc2cc3c(cc2C)CCCC3(C)C)o1` [SB-003-RS, N-(4-(2-fluoroethoxy)-2,6-dimethoxyphenyl)-5-((3,8,8-trimethyl-5,6,7,8-tetrahydronaphthalen-2-yl)methyl)furan-2-carboxamide], the Ki in data set [4] worked out at 0.6 ± 0.4 nM.

As to `COc1cc(NCCCF)cc(OC)c1NC(=O)c1ccc(Oc2cc3c(cc2C)CCC3(C)C)o1` [[^18F]SB-002-RS, N-(4-((3-fluoropropyl)amino)-2,6-dimethoxyphenyl)-5-((3,3,6-trimethyl-2,3-dihydro-1H-inden-5-yl)oxy)furan-2-carboxamide], in data set [5], the “% Intact 18F-compound, Blood 1 h” value is reported as 97% and the “% Intact 18F-compound, Urine 1 h” value was 99%. Besides, the logP in data set [6] came to 1.49. Besides, in data set [3] (rat serum), the “% Intact 18F-compound, Serum 1 h” value stood at 99.1% and the “% Intact 18F-compound, Serum 2 h” value was 97.5%.

In the case of `COc1cc(NCCCF)cc(OC)c1NC(=O)c1ccc(Cc2cc3c(cc2C)CCCC3(C)C)o1` [[^18F]SB-001-RS, N-(4-((3-fluoropropyl)amino)-2,6-dimethoxyphenyl)-5-((3,8,8-trimethyl-5,6,7,8-tetrahydronaphthalen-2-yl)methyl)furan-2-carboxamide], in data set [5], the “% Intact 18F-compound, Blood 1 h” value was found to be 81% and the “% Intact 18F-compound, Urine 1 h” value is listed as 94.5%. The same molecule gave a logP in data set [6] of 1.43. Moreover, in data set [3] (rat serum), the “% Intact 18F-compound, Serum 1 h” value is reported as greater than 95% and the “% Intact 18F-compound, Serum 2 h” value is recorded as 88.5%.

Regarding `COc1cc(NCCCF)cc(OC)c1NC(=O)c1ccc(Cc2cc3c(cc2C)CCCC3(C)C)o1` [SB-001-RS, N-(4-((3-fluoropropyl)amino)-2,6-dimethoxyphenyl)-5-((3,8,8-trimethyl-5,6,7,8-tetrahydronaphthalen-2-yl)methyl)furan-2-carboxamide], the Ki in data set [4] stood at 3.7 ± 2.3 nM.

At rat GnRH receptor, `COc1nc(OCC[18F])nc(OC)c1NC(=O)c1ccc(Oc2cc3c(cc2C)CCC3(C)C)o1` [[^18F]SB7-65-18] came in with an inhibitory constant (Ki) of 1.36 nM. This molecule showed a logP in data set [1] (pH 7.4) of 1.3. The logD in data set [1] (pH 7.4, experimentally determined, read-out: CLog D (pH 7.4)) is 1.22. In addition, in data set [2], the “Brain uptake (in words)” value is on record as “failed to show significant brain uptake”. Also, the “Stability in rat serum” value in data set [3] (rat serum, over 2 hours) is recorded as “stable”.

For `COc1cc(OCCF)cc(OC)c1NC(=O)c1ccc(Oc2cc3c(cc2C)CCC3(C)C)o1` [SB-004-RS, N-(4-(2-fluoroethoxy)-2,6-dimethoxyphenyl)-5-((3,3,6-trimethyl-2,3-dihydro-1H-inden-5-yl)oxy)furan-2-carboxamide], the Ki in data set [4] was determined as 2.1 ± 2.1 nM.

Consider `COc1cc(OCCF)cc(OC)c1NC(=O)c1ccc(Cc2cc3c(cc2C)CCCC3(C)C)o1` [[^18F]SB-003-RS, N-(4-(2-fluoroethoxy)-2,6-dimethoxyphenyl)-5-((3,8,8-trimethyl-5,6,7,8-tetrahydronaphthalen-2-yl)methyl)furan-2-carboxamide], for which, in data set [5], the “% Intact 18F-compound, Blood 1 h” value is given as 88.1% and the “% Intact 18F-compound, Urine 1 h” value worked out at 18.5%. This molecule also registered a logP in data set [6] of 1.68. In addition, in data set [3] (rat serum), the “% Intact 18F-compound, Serum 1 h” value is given as greater than 95% and the “% Intact 18F-compound, Serum 2 h” value came to 91.1%.

With `COc1cc(OCCF)cc(OC)c1NC(=O)c1ccc(Oc2cc3c(cc2C)CCC3(C)C)o1` [[^18F]SB-004-RS, N-(4-(2-fluoroethoxy)-2,6-dimethoxyphenyl)-5-((3,3,6-trimethyl-2,3-dihydro-1H-inden-5-yl)oxy)furan-2-carboxamide], in data set [5], the “% Intact 18F-compound, Blood 1 h” value is reported as 97.5% and the “% Intact 18F-compound, Urine 1 h” value was 99%. For the same molecule, in data set [6], the lipophilicity (logP) is 1.82. In addition, in data set [3] (rat serum), the “% Intact 18F-compound, Serum 1 h” value was greater than 95% and the “% Intact 18F-compound, Serum 2 h” value is 97.3%.
